Earlier results, collected in US4292313A, “LRF Antagonists” (The Salk Institute for Biological Studies, priority 1980, dated 1981).
[ ]: non-standard residue; d: D form. pGlu = O=C1CC[C@@H](C(=O)O)N1

Test system: pituitary gland
Conditions: versus 6-Gly des-His2 analog

In the case of [pGlu]WSY[dA]LRPG-NH2, the “Potency as inhibitor of release of gonadotropins relative to the same peptide with Gly in the 6-position” value is given as 3 times.
